Among the data in ChEMBL document CHEMBL1156557, “Structure and biosynthesis of norneolambertellin produced by Lambertella sp. 1346” (Bioorg Med Chem Lett, 2008) are Activity values, retold here.

The source made the active and inactive calls. The calls are words filed in the database; no cut-off is given here.

Assay [1] concerns Bipolaris oryzae. In words: Antifungal activity against Cochliobolus miyabeanus at 50 ug/ml. Type of assay: functional, organism-based.
Assay [2] has as its system Monilinia fructigena. Briefly: Antifungal activity against Monilinia fructigena. It counts as functional, organism-based.

Take `Cc1cc2c(=O)oc3c(O)cccc3c2oc1=O`: the outcome in assay [1] was Active. Moreover, the result in assay [2] was inactive.
